Measured values published in patent US20090298820A1, “3-SUBSTITUTED-1H-PYRROLO[2,3-B]PYRIDINE AND 3-SUBSTITUTED-1H-PYRROLO[3,2-B]PYRIDINE COMPOUNDS, THEIR USE AS MTOR KINASE AND PI3 KINASE INHIBITORS, AND THEIR SYNTHESES” (Wyeth, priority 2008, published 2009).

Tests used:
[1] = target: PI3Kγ (Homo sapiens, UniProt P48736); test: PI3K-gamma fluorescence polarization assay; assay type: biochemical; details: read-out: PI3Kγ Median IC50
[2] = target: PI3Kα (Homo sapiens, UniProt P42336); test: PI3K-alpha fluorescence polarization assay; assay type: biochemical; details: read-out: PI3Kα Median IC50
PI3Kα, sequence (P42336 whole entry, species assumed): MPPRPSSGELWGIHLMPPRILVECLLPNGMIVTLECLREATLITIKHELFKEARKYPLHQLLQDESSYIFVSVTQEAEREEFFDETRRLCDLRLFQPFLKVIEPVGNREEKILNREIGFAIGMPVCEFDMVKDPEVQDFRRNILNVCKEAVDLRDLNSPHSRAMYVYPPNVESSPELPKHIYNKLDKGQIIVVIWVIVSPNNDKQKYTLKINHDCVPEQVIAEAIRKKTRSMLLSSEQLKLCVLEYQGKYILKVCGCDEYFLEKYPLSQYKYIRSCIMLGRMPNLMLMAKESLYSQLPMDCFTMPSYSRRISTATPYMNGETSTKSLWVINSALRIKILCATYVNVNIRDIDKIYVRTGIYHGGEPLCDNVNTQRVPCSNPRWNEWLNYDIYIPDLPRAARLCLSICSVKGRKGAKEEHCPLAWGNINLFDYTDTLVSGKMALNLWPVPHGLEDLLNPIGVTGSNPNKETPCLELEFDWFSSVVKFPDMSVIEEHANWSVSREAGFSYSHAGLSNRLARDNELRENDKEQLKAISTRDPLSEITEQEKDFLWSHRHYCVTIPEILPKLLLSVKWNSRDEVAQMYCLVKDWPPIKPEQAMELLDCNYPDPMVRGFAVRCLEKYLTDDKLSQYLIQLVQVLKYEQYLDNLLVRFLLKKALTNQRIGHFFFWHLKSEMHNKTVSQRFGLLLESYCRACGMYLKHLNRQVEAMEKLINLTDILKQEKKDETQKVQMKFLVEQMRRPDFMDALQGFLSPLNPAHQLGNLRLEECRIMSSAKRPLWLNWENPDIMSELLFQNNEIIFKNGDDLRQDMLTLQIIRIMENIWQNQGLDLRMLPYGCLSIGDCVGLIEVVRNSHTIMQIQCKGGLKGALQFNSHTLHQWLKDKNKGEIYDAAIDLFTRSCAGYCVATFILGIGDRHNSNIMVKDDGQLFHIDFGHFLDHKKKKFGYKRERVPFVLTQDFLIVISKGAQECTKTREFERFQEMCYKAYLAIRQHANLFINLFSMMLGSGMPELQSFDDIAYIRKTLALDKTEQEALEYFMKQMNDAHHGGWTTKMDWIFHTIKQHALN
PI3Kα, sequence (P27986 whole entry partner, species assumed): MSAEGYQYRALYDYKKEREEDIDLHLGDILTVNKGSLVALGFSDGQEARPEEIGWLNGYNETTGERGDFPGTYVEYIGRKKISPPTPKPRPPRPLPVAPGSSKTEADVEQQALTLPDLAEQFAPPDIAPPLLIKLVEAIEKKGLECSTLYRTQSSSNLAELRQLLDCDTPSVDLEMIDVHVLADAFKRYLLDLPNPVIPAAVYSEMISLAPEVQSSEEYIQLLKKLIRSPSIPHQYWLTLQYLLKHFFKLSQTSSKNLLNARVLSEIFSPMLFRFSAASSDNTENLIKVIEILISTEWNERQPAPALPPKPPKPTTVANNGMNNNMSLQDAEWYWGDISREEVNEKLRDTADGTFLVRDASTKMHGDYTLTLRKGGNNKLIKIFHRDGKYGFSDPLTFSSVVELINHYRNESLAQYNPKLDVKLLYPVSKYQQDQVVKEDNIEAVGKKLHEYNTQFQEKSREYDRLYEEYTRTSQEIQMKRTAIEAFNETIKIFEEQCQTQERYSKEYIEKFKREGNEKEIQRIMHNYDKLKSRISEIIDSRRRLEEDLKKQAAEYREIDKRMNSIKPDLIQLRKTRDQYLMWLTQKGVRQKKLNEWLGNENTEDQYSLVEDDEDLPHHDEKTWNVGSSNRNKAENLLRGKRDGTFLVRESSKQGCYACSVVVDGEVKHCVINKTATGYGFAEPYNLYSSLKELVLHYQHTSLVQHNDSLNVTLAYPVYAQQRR

[3] = target: mTOR (Homo sapiens, UniProt P42345); test: mTOR enzyme assay (DELFIA format, His6-S6K substrate); assay type: biochemical; details: read-out: mTOR Kinase Median IC50

PI3Kγ, sequence (P48736 whole entry, species assumed): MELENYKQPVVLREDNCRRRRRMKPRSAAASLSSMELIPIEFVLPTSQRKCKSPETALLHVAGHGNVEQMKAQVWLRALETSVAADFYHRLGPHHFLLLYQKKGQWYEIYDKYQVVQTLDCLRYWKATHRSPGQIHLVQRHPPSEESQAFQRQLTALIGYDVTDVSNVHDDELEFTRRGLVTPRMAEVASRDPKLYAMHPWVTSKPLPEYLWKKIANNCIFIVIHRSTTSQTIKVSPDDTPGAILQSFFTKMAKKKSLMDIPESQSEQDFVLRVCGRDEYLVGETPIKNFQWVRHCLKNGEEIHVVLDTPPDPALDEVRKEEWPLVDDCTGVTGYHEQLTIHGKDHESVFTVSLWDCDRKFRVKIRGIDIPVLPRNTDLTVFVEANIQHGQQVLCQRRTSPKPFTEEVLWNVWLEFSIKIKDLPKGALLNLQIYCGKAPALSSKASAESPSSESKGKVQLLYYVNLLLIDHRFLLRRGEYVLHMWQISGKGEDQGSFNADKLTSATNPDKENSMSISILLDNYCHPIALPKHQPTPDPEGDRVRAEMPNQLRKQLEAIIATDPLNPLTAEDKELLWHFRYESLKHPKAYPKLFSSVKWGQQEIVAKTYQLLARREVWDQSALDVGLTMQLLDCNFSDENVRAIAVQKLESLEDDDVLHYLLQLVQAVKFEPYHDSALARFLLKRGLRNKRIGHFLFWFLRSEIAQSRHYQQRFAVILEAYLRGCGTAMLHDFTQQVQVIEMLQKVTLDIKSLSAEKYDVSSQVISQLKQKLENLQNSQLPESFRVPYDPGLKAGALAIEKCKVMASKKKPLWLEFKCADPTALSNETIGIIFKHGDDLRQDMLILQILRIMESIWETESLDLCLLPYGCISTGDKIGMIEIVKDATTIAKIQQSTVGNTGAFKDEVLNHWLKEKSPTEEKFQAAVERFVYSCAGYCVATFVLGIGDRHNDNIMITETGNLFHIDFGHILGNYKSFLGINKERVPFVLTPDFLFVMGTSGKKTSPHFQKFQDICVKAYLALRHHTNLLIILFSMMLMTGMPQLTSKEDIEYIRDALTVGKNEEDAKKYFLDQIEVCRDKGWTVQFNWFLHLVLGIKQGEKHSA

| SMILES | melting point | IC50 [1] | IC50 [2] | IC50 [3] |
| --- | --- | --- | --- | --- |
| Cn1cc(/C=C2\Oc3ccc(NC(=O)OCCO)cc3C2=O)c2c(-c3ccccc3)ccnc21 [Compound 60, 2-hydroxyethyl {(2Z)-2-[(1-methyl-4-phenyl-1H-pyrrolo[2,3-b]pyridin-3-yl)methylene]-3-oxo-2,3-dihydro-1-benzofuran-5-yl}carbamate] | 233 to 235 °C | > 10000 nM | > 10000 nM | 58.5 nM |
| Cn1cc(/C=C2\Oc3ccc(NC(=O)Nc4cccnc4)cc3C2=O)c2c(N3CCC(C(=O)N4CC5CCC(C4)O5)CC3)ccnc21 [Compound 250, 1-[(2Z)-2-({1-methyl-4-[4-(8-oxa-3-azabicyclo[3.2.1]oct-3-ylcarbonyl)piperidin-1-yl]-1H-pyrrolo[2,3-b]pyridin-3-yl}methylene)-3-oxo-2,3-dihydro-1-benzofuran-5-yl]-3-pyridin-3-ylurea] | 260 to 265 °C | 2820 nM | 1680 nM | 17 nM |
| CN(Cc1cccnc1)C(=O)C1CCN(c2ccnc3c2c(/C=C2\Oc4ccc(NC(=O)Nc5cccnc5)cc4C2=O)cn3C)CC1 [Compound 256, N-methyl-1-{1-methyl-3-[(Z)-{3-oxo-5-[(pyridin-3-ylcarbamoyl)amino]-1-benzofuran-2(3H)-ylidene}methyl]-1H-pyrrolo[2,3-b]pyridin-4-yl}-N-(pyridin-3-ylmethyl)piperidine-4-carboxamide] | 195 to 205 °C | 1610 nM | 1020 nM | 10.9 nM |
| Cn1cc(/C=C2\Oc3ccc(NS(C)(=O)=O)cc3C2=O)c2c(-c3ccccc3)ccnc21 [Compound 162, N-{(2Z)-2-[(1-methyl-4-phenyl-1H-pyrrolo[2,3-b]pyridin-3-yl)methylidene]-3-oxo-2,3-dihydro-1-benzofuran-5-yl}methanesulfonamide] | 257 to 262 °C | 7430 nM | 5900 nM | > 4000 nM |
| CC1CC(C)CN(c2ccnc3c2c(/C=C2\Oc4cccc(O)c4C2=O)cn3C)C1 (stereo not shown) [Compound 100, (2Z)-2-{[4-(3,5-dimethylpiperidin-1-yl)-1-methyl-1H-pyrrolo[2,3-b]pyridin-3-yl]methylene}-4-hydroxy-1-benzofuran-3(2H)-one] | 235 to 240 °C | > 10000 nM | 806 nM | 15 nM |
| CNC(=O)Nc1ccc2c(c1)C(=O)/C(=C/c1cn(C)c3nccc(N4C5CCC4COC5)c13)O2 [Compound 281, 1-methyl-3-[(2Z)-2-{[1-methyl-4-(3-oxa-8-azabicyclo[3.2.1]oct-8-yl)-1H-pyrrolo[2,3-b]pyridin-3-yl]methylidene}-3-oxo-2,3-dihydro-1-benzofuran-5-yl]urea] | 226 to 232 °C (dec.) | 1710 nM | 104 nM | 31 nM |
| Cn1cc(/C=C2\Oc3cccc(N)c3C2=O)c2c(-c3ccccc3)ccnc21 [Compound 108, (2Z)-4-amino-2-[(1-methyl-4-phenyl-1H-pyrrolo[2,3-b]pyridin-3-yl)methylene]-1-benzofuran-3(2H)-one] | 262 to 268 °C | > 10000 nM | 6110 nM | 53 nM |
| Cn1cc(/C=C2\Oc3ccc(NC(=O)Nc4cccnc4)cc3C2=O)c2c(N3C4CCCC3COC4)ccnc21 [Compound 276, 1-[(2Z)-2-{[1-methyl-4-(3-oxa-9-azabicyclo[3.3.1]non-9-yl)-1H-pyrrolo[2,3-b]pyridin-3-yl]methylidene}-3-oxo-2,3-dihydro-1-benzofuran-5-yl]-3-pyridin-3-ylurea] | 240 to 245 °C (dec.) | 1120 nM | 2260 nM | 31.5 nM |
| Cn1cc(/C=C2\Oc3cccc(O)c3C2=O)c2c(N3CCC(N)CC3)ccnc21 [Compound 139, (2Z)-2-{[4-(4-aminopiperidin-1-yl)-1-methyl-1H-pyrrolo[2,3-b]pyridin-3-yl]methylene}-4-hydroxy-1-benzofuran-3(2H)-one] | 260 °C | 1270 nM | 119 nM | 19 nM |
| Cn1cc(/C=C2\Oc3ccc(C(=O)O)cc3C2=O)c2c(N3CC4CCC(C3)O4)ccnc21 [Compound 197, (2Z)-2-{[1-methyl-4-(8-oxa-3-azabicyclo[3.2.1]oct-3-yl)-1H-pyrrolo[2,3-b]pyridin-3-yl]methylidene}-3-oxo-2,3-dihydro-1-benzofuran-5-carboxylic acid] | 285 to 289 °C | 3000 nM | 2370 nM | 130 nM |
| CC(=O)Nc1ccc2c(c1)C(=O)/C(=C/c1cn(C)c3nccc(-c4ccccc4)c13)O2 [Compound 154, N-{(2Z)-2-[(1-methyl-4-phenyl-1H-pyrrolo[2,3-b]pyridin-3-yl)methylidene]-3-oxo-2,3-dihydro-1-benzofuran-5-yl}acetamide] | 332 to 335 °C | 1070 nM | 1390 nM | 69 nM |

Now those with a lower IC50 [1], led by results:

| melting point | IC50 [1] | IC50 [2] | IC50 [3] | SMILES |
| --- | --- | --- | --- | --- |
| 158 to 163 °C | 781 nM | 243 nM | 64.5 nM | COCCN(C)CCCNC(=O)Nc1ccc2c(c1)C(=O)/C(=C/c1cn(C)c3nccc(N4CC5CCC(C4)O5)c13)O2 [Compound 242, 1-{3-[(2-methoxyethyl)(methyl)amino]propyl}-3-[(2Z)-2-{[1-methyl-4-(8-oxa-3-azabicyclo[3.2.1]oct-3-yl)-1H-pyrrolo[2,3-b]pyridin-3-yl]methylene}-3-oxo-2,3-dihydro-1-benzofuran-5-yl]urea] |
| 205 °C | 576 nM | 120 nM | 39 nM | CN(C)C1CCN(c2ccnc3c2c(/C=C2\Oc4cccc(O)c4C2=O)cn3C)C1 (stereo not shown) [Compound 112, (2Z)-2-({4-[3-(dimethylamino)pyrrolidin-1-yl]-1-methyl-1H-pyrrolo[2,3-b]pyridin-3-yl}methylene)-4-hydroxy-1-benzofuran-3(2H)-one] |
| 330 to 332 °C | 351 nM | 43 nM | 10.5 nM | Cn1cc(/C=C2\Oc3cc(O)cc(O)c3C2=O)c2c(Oc3ccccc3)ccnc21 [Compound 94, (2Z)-4,6-dihydroxy-2-[(1-methyl-4-phenoxy-1H-pyrrolo[2,3-b]pyridin-3-yl)methylene]-1-benzofuran-3(2H)-one] |
| 310 to 318 °C | 319 nM | 92 nM | 10.3 nM | Cn1cc(/C=C2\Oc3cccc(O)c3C2=O)c2c(-c3cccc(S(C)(=O)=O)c3)ccnc21 [Compound 75, (2Z)-4-hydroxy-2-({1-methyl-4-[3-(methylsulfonyl)phenyl]-1H-pyrrolo[2,3-b]pyridin-3-yl}methylene)-1-benzofuran-3(2H)-one] |
| 239 to 242 °C | 167 nM | 47 nM | 14 nM | CN1CCN(C2CCN(c3ccnc4c3c(/C=C3\Oc5cccc(O)c5C3=O)cn4C)CC2)CC1 [Compound 129, (2Z)-4-hydroxy-2-({1-methyl-4-[4-(4-methylpiperazin-1-yl)piperidin-1-yl]-1H-pyrrolo[2,3-b]pyridin-3-yl}methylene)-1-benzofuran-3(2H)-one] |
| 315 to 320 °C | 132 nM | 14 nM | 1.6 nM | Cn1cc(/C=C2\Oc3cc(O)cc(O)c3C2=O)c2c(-c3cccc(S(C)(=O)=O)c3)ccnc21 [Compound 74, (2Z)-4,6-dihydroxy-2-({1-methyl-4-[3-(methylsulfonyl)phenyl]-1H-pyrrolo[2,3-b]pyridin-3-yl}methylene)-1-benzofuran-3(2H)-one] |
| 262 to 270 °C | 98 nM | 75 nM | 2.3 nM | C[C@@H]1CN(C(=O)c2ccc(-c3ccnc4c3c(/C=C3\Oc5cccc(O)c5C3=O)cn4C)cc2)C[C@H](C)O1 [Compound 303, (2Z)-2-{[4-(4-{[(2R,6S)-2,6-dimethylmorpholin-4-yl]carbonyl}phenyl)-1-methyl-1H-pyrrolo[2,3-b]pyridin-3-yl]methylidene}-4-hydroxy-1-benzofuran-3(2H)-one] |
| 258 to 263 °C | 88 nM | 30 nM | 4.4 nM | Cn1cc(/C=C2\Oc3cccc(O)c3C2=O)c2c(N3CC4CC3CO4)ccnc21 (stereo not shown) [Compound 117, (2Z)-4-hydroxy-2-{[1-methyl-4-(2-oxa-5-azabicyclo[2.2.1]hept-5-yl)-1H-pyrrolo[2,3-b]pyridin-3-yl]methylene}-1-benzofuran-3(2H)-one] |
| 252 to 260 °C (dec.) | 78 nM | 74 nM | 9.4 nM | Cn1cc(/C=C2\Oc3cccc(O)c3C2=O)c2c(-c3ccc(N4CC5CCC(C4)O5)cc3)ccnc21 [Compound 157, (2Z)-4-hydroxy-2-({1-methyl-4-[4-(8-oxa-3-azabicyclo[3.2.1]oct-3-yl)phenyl]-1H-pyrrolo[2,3-b]pyridin-3-yl}methylidene)-1-benzofuran-3(2H)-one] |
| 261 to 263 °C | 34 nM | 53 nM | 10.5 nM | CN(C)CCCNC(=O)Nc1ccc2c(c1)C(=O)/C(=C/c1cn(C)c3nccc(N4CC5CCC(C4)O5)c13)O2 [Compound 241, 1-[3-(dimethylamino)propyl]-3-[(2Z)-2-{[1-methyl-4-(8-oxa-3-azabicyclo[3.2.1]oct-3-yl)-1H-pyrrolo[2,3-b]pyridin-3-yl]methylene}-3-oxo-2,3-dihydro-1-benzofuran-5-yl]urea] |
| 340 °C | 24 nM | 8 nM | 1.5 nM | Cn1cc(/C=C2\Oc3cc(O)cc(O)c3C2=O)c2c(-c3ccc(Cl)nc3)ccnc21 [Compound 63, (2Z)-2-{[4-(6-chloropyridin-3-yl)-1-methyl-1H-pyrrolo[2,3-b]pyridin-3-yl]methylene}-4,6-dihydroxy-1-benzofuran-3(2H)-one] |
